Source: patent US20230116602A1, “MCL1 INHIBITORS AND USES THEREOF” (California Institute of Technology, priority 2019, published 2023)
pIC50, pKd: −log10 of the molar value. Read-outs that look alike come from different tables or passages of the source.

Columns and labels:
[1] = biological target: MCL1 (Homo sapiens, UniProt Q07820); experiment: MCL1 affinity assay (competition binding, qPCR readout); conditions: recombinant MCL1, 11-point 3-fold dilution series
Procedure, shortened: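 Competition binding: DNA-tagged recombinant protein (E. coli BL21-derived or HEK-293), biotinylated peptide ligand-loaded streptavidin beads and compound incubated 1 hour at room temperature, 0.9% DMSO final. Bound protein eluted with 0.5 μM non-biotinylated ligand and quantified by qPCR; Kd from 11-point 3-fold dilution series.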

[2] = biological target: BCL2 (Homo sapiens, UniProt P10415); experiment: BCL2 affinity assay (competition binding, qPCR readout); conditions: recombinant BCL2, 11-point 3-fold dilution series
Protocol: (§1) Recombinant MCL1, BCL2 and BCXL proteins were prepared in either an E. coli host derived from the BL21 strain or in HEK-293 cells. The recombinant proteins were subsequently tagged with DNA for qPCR detection. Streptavidin-coated magnetic beads were treated for 30 minutes at room temperature with the respective biotinylated peptide ligands for each recombinant protein to generate affinity resins for the assays. The liganded beads were blocked with excess biotin and washed with blocking buffer (SeaBlock (Pierce), 1% BSA, 0.05% Tween 20, 1 mM DTT) to remove unbound ligand and to reduce nonspecific binding. Binding reactions were assembled by combining recombinant protein, liganded affinity beads, and test compounds in 1× binding buffer (20% SeaBlock, 0.17×PBS, 0.05% Tween 20, 6 mM DTT). Test compounds were prepared as 111X stocks in 100% DMSO. The compounds were then diluted directly into the assays such that the final concentration of DMSO was 0.9%. The assay plates were incubated at room temperature with shaking for 1 hour and the affinity beads were washed with wash buffer (1×PBS, 0.05% Tween 20). The beads were then re-suspended in elution buffer (1×PBS, 0.05% Tween 20, 0.5 μM non-biotinylated affinity ligand) and incubated at room temperature with shaking for 30 minutes. The recombinant protein concentration in the eluates was measured by qPCR. Kds were determined using an 11-point 3-fold compound dilution series with three DMSO control points.

[3] = biological target: BCLXL (Homo sapiens, UniProt Q07817); experiment: BCLXL affinity assay (competition binding, qPCR readout); conditions: recombinant BCLXL, 11-point 3-fold dilution series
Protocol: as §1

[4] = system: drug-sensitive cell lines of Table 3; experiment: Cell line growth retardation assay, sensitive cohort; type: cell-based, Human; conditions: for pIC50: arithmetic mean of IC50s over the sensitive cohort of Table 3, 6 days growth, read-out: AvgSen IC50; for Fold Diff: average IC50 of resistant cohort divided by average IC50 of sensitive cohort
Procedure, shortened: (§2)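 Cell lines classed as MCL1-inhibition sensitive or resistant were seeded, rested 24 h, then exposed to 10–0.0032 μM compound for 6 days. Cells were counted by imaging; growth inhibition was the ratio of population doublings with vs without compound from a pre-treatment baseline. IC50 from curve fits, averaged per cohort.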

[5] = system: drug-resistant cell lines of Table 3; experiment: Cell line growth retardation assay, resistant cohort; type: cell-based, Human; conditions: arithmetic mean of IC50s over the resistant cohort of Table 3, 6 days growth, read-out: AvgRes IC50
Procedure, shortened: as §2

BCLXL, sequence (Q07817 whole entry): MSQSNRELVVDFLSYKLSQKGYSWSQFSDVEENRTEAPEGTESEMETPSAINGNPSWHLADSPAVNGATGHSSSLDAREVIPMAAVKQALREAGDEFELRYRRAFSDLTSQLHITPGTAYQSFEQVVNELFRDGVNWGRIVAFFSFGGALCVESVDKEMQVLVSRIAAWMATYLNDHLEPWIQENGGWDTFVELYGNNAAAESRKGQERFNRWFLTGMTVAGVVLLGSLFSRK
BCL2, sequence (P10415 whole entry): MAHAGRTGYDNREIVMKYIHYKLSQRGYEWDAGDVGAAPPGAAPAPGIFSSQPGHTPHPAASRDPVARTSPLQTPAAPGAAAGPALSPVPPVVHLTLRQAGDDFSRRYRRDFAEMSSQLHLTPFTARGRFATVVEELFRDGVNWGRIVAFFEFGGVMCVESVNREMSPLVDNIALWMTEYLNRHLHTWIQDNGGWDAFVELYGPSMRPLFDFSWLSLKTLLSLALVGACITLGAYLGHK
MCL1, sequence (Q07820 whole entry): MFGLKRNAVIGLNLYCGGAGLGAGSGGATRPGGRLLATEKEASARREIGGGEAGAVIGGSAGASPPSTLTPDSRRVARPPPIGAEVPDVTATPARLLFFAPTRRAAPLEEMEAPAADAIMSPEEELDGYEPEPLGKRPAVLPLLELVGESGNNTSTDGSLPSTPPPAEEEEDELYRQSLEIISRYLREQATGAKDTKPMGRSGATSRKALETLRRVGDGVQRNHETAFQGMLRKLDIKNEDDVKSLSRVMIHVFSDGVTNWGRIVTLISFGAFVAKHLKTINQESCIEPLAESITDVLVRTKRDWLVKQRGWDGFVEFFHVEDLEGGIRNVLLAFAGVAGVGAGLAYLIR

| SMILES | pKd [1] | pKd [2] | pKd [3] | pIC50 ([4]; Homo sapiens, 144 h) | Fold Diff [4] | pIC50 ([5]; Homo sapiens, 144 h) | pIC50 [4] | pIC50 [5] |
| --- | --- | --- | --- | --- | --- | --- | --- | --- |
| Cc1c(-c2c(-c3ccccn3)ncc3snc(O[C@H](Cc4ccccc4OCc4ccnn4CC(F)(F)F)C(=O)O)c23)ccc(OCCN2CCN(C)CC2)c1Cl (atropisomer, axis not shown) [Compound 52] | 5.82 to 6.30 | < 5.82 | < 5.82 | < 5.30 | − (“−” represents a fold difference less than 10) | < 5.30 | – | – |
| Cc1c(-c2c(-c3ccc(F)cc3)ncc3snc(O[C@H](Cc4ccccc4OCc4ccnn4CC(F)(F)F)C(=O)O)c23)ccc(OCCN2CCN(C)CC2)c1Cl (single isomer, unassigned) [Compound 5] | < 5.82 | < 5.82 | < 5.82 | – | − (“−” represents a fold difference less than 10) | – | < 5.30 | < 5.30 |
| Cc1c(-c2c(-c3ccc4c(ccn4C)c3)ncc3snc(O[C@H](Cc4ccccc4OCc4ccnn4CC(F)(F)F)C(=O)O)c23)ccc(OCCN2CCN(C)CC2)c1Cl (atropisomer, axis not shown) [Compound 10] | < 5.82 | < 5.82 | < 5.82 | < 5.30 | − (“−” represents a fold difference less than 10) | < 5.30 | – | – |
| COc1ccccc1-c1nccc(COc2ccccc2C[C@@H](Oc2nsc3cnc(C4=CCOCC4)c(-c4ccc(OCCN5CCN(C)CC5)c(Cl)c4C)c23)C(=O)O)n1 (atropisomer, axis not shown) [Compound 54] | ≥ 7.00 | < 5.82 | < 5.82 | 5.30 to 6.00 | − (“−” represents a fold difference less than 10) | < 5.30 | – | – |
| Cc1c(-c2c(C3CC3)ncc3snc(O[C@H](Cc4ccccc4OCc4ccnn4CC(F)(F)F)C(=O)O)c23)ccc(OCCN2CCN(C)CC2)c1Cl (atropisomer, axis not shown) [Compound 30] | ≥ 7.00 | < 5.82 | < 5.82 | 5.30 to 6.00 | − (“−” represents a fold difference less than 10) | < 5.30 | – | – |
| Cc1c(-c2c(-c3cccc4cc[nH]c34)ncc3snc(O[C@H](Cc4ccccc4OCc4ccnn4CC(F)(F)F)C(=O)O)c23)ccc(OCCN2CCN(C)CC2)c1Cl (atropisomer, axis not shown) [Compound 18] | < 5.82 | < 5.82 | < 5.82 | < 5.30 | − (“−” represents a fold difference less than 10) | < 5.30 | – | – |
| Cc1c(-c2c(-c3cccc(C(F)(F)F)c3)ncc3snc(O[C@H](Cc4ccccc4OCc4ccnn4CC(F)(F)F)C(=O)O)c23)ccc(OCCN2CCN(C)CC2)c1Cl (atropisomer, axis not shown) [Compound 22] | 5.82 to 6.30 | < 5.82 | < 5.82 | 5.30 to 6.00 | − (“−” represents a fold difference less than 10) | < 5.30 | – | – |
| Cc1c(-c2c(-c3ccsc3)ncc3snc(O[C@H](Cc4ccccc4OCc4ccnn4CC(F)(F)F)C(=O)O)c23)ccc(OCCN2CCN(C)CC2)c1Cl (atropisomer, axis not shown) [Compound 27] | 6.30 to 7.00 | < 5.82 | < 5.82 | 5.30 to 6.00 | − (“−” represents a fold difference less than 10) | < 5.30 | – | – |
| Cc1c(-c2c(-c3cccc(F)c3)ncc3snc(O[C@H](Cc4ccccc4)C(=O)O)c23)ccc(OCCN2CCN(C)CC2)c1Cl (atropisomer, axis not shown) [Compound 92] | 5.82 to 6.30 | < 5.82 | < 5.82 | 5.30 to 6.00 | − (“−” represents a fold difference less than 10) | < 5.30 | – | – |
| Cc1c(-c2c(-c3ccc(F)cc3)ncc3snc(O[C@H](Cc4ccccc4OCc4ccnn4CC(F)(F)F)C(=O)O)c23)ccc(OCCN2CCN(C)CC2)c1Cl (single isomer, unassigned) [Compound 6] | 6.30 to 7.00 | < 5.82 | < 5.82 | – | − (“−” represents a fold difference less than 10) | < 5.30 | 5.30 to 6.00 | – |
| Cc1c(-c2c(-c3cccc(F)c3)ncc3snc(O[C@H](Cc4ccccc4OCc4ccnn4CC(F)(F)F)C(=O)O)c23)ccc(OCCN2CCN(C)CC2)c1Cl (atropisomer, axis not shown) [Compound 26] | 6.30 to 7.00 | < 5.82 | < 5.82 | ≥ 6.00 | + (“+” represents a fold difference of 10 or more) | < 5.30 | – | – |
| Cc1c(-c2c(-c3ccc(F)c4ccoc34)ncc3snc(O[C@H](Cc4ccccc4OCc4ccnn4CC(F)(F)F)C(=O)O)c23)ccc(OCCN2CCN(C)CC2)c1Cl (atropisomer, axis not shown) [Compound 14] | 6.30 to 7.00 | < 5.82 | < 5.82 | 5.30 to 6.00 | − (“−” represents a fold difference less than 10) | < 5.30 | – | – |
| Cc1c(-c2c(-c3cccc4ccsc34)ncc3snc(O[C@H](Cc4ccccc4OCc4ccnn4CC(F)(F)F)C(=O)O)c23)ccc(OCCN2CCN(C)CC2)c1Cl (atropisomer, axis not shown) [Compound 24] | < 5.82 | < 5.82 | < 5.82 | 5.30 to 6.00 | − (“−” represents a fold difference less than 10) | < 5.30 | – | – |
| Cc1c(-c2c(-c3cn(C)c4ccccc34)ncc3snc(O[C@H](Cc4ccccc4OCc4ccnn4CC(F)(F)F)C(=O)O)c23)ccc(OCCN2CCN(C)CC2)c1Cl (atropisomer, axis not shown) [Compound 20] | 5.82 to 6.30 | < 5.82 | < 5.82 | < 5.30 | − (“−” represents a fold difference less than 10) | < 5.30 | – | – |
| COc1cccc(-c2ncc3snc(O[C@H](Cc4ccccc4OCc4ccnc(-c5ccccc5OC)n4)C(=O)O)c3c2-c2ccc(OCCN3CCOCC3)c(Cl)c2C)c1 (single isomer, unassigned) [Compound 42] | ≥ 7.00 | < 5.82 | < 5.82 | 5.30 to 6.00 | − (“−” represents a fold difference less than 10) | < 5.30 | – | – |
| Cc1c(-c2c(-c3cccc4c3ccn4C)ncc3snc(O[C@H](Cc4ccccc4OCc4ccnn4CC(F)(F)F)C(=O)O)c23)ccc(OCCN2CCN(C)CC2)c1Cl (atropisomer, axis not shown) [Compound 15] | 5.82 to 6.30 | 5.82 to 6.30 | < 5.82 | < 5.30 | − (“−” represents a fold difference less than 10) | < 5.30 | – | – |
| Cc1c(-c2c(-c3csc4ccccc34)ncc3snc(O[C@H](Cc4ccccc4OCc4ccnn4CC(F)(F)F)C(=O)O)c23)ccc(OCCN2CCN(C)CC2)c1Cl (atropisomer, axis not shown) [Compound 19] | < 5.82 | < 5.82 | < 5.82 | 5.30 to 6.00 | − (“−” represents a fold difference less than 10) | < 5.30 | – | – |
| Cc1c(-c2c(Cl)ncc3snc(O[C@H](Cc4ccccc4OCc4ccnn4CC(F)(F)F)C(=O)O)c23)ccc(OCCN2CCN(C)CC2)c1Cl (single isomer, unassigned) [Compound 3] | < 5.82 | < 5.82 | < 5.82 | < 5.30 | − (“−” represents a fold difference less than 10) | < 5.30 | – | – |
| COc1ccccc1-c1nccc(COc2ccccc2C[C@@H](Oc2nsc3cnc(-c4ccccn4)c(-c4ccc(OCCN5CCN(C)CC5)c(Cl)c4C)c23)C(=O)O)n1 (atropisomer, axis not shown) [Compound 53] | ≥ 7.00 | < 5.82 | < 5.82 | < 5.30 | − (“−” represents a fold difference less than 10) | < 5.30 | – | – |
| Cc1c(-c2c(-c3cccc4c3CCC4)ncc3snc(O[C@H](Cc4ccccc4OCc4ccnn4CC(F)(F)F)C(=O)O)c23)ccc(OCCN2CCN(C)CC2)c1Cl (atropisomer, axis not shown) [Compound 13] | < 5.82 | < 5.82 | < 5.82 | < 5.30 | − (“−” represents a fold difference less than 10) | < 5.30 | – | – |
